This is an account of results in article PMC5068113 (Pharmacognosy Magazine, 2016).

Common to all, as to assay: CYP inhibition by substrate-cocktail method in HLM
Common to all, as to assay type: in vitro ADME

One data set has as its target T1, human CYP2C8 (Homo sapiens, UniProt P10632).
T1 sequence (P10632 1-490): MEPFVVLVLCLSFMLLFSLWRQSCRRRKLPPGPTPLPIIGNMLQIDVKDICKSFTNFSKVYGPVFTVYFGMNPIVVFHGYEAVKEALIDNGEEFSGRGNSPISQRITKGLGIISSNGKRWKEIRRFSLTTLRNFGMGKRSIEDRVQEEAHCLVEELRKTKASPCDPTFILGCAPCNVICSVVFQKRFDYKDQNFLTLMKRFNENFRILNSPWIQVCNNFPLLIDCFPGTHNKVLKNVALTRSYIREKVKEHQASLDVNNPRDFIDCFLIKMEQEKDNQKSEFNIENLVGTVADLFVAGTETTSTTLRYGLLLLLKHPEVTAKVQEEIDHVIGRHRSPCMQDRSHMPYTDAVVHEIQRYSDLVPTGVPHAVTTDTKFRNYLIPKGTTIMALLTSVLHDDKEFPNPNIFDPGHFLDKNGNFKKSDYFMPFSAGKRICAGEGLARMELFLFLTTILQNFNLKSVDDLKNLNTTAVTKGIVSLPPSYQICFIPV

The target in the next data set is CYP2D6 (Homo sapiens, UniProt P10635). The conditions noted are these: human liver microsomes, pH 7.4, probe dextromethorphan. (In general: Microsomes from liver hold many membrane-bound enzymes, among them those of drug oxidation.)
The target of the next data set is T2, CYP1A2 (Homo sapiens, UniProt P05177).
T2 sequence (P05177 1-516): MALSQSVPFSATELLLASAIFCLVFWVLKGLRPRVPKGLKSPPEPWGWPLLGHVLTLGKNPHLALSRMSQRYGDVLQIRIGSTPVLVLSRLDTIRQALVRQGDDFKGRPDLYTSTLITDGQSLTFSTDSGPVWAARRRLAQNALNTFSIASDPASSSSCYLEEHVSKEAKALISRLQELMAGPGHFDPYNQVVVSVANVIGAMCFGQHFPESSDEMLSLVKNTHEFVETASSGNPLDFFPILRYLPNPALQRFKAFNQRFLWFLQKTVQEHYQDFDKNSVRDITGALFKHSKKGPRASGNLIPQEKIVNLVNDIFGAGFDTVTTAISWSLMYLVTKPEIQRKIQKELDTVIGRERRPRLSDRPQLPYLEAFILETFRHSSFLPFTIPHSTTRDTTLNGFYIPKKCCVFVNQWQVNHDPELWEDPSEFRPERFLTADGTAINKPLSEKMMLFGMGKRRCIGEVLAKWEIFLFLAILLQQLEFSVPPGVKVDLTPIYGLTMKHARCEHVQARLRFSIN
The conditions noted are these: human liver microsomes, pH 7.4, probe tacrine.

For the next data set, the target named is CYP2C9 (Homo sapiens, UniProt P11712). The conditions noted are these: human liver microsomes, pH 7.4, probe diclofenac.

≈ marks a conversion by molar mass, not a printed value.

Chain of CYP2D6 (P10635 whole entry): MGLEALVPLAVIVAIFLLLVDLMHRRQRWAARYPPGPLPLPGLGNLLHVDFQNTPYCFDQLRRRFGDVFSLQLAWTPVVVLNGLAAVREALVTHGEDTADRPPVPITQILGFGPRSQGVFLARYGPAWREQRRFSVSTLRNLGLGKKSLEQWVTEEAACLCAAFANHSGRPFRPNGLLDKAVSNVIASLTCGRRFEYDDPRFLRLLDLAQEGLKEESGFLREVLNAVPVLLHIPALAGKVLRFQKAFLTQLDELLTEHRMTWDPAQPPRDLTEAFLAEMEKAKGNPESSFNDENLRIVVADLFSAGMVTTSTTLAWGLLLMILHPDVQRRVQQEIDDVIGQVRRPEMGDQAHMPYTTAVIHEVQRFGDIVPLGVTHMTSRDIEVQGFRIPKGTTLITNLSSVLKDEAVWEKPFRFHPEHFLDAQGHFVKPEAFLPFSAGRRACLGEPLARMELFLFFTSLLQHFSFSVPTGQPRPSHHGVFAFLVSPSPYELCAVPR
Chain of CYP2C9 (P11712 whole entry): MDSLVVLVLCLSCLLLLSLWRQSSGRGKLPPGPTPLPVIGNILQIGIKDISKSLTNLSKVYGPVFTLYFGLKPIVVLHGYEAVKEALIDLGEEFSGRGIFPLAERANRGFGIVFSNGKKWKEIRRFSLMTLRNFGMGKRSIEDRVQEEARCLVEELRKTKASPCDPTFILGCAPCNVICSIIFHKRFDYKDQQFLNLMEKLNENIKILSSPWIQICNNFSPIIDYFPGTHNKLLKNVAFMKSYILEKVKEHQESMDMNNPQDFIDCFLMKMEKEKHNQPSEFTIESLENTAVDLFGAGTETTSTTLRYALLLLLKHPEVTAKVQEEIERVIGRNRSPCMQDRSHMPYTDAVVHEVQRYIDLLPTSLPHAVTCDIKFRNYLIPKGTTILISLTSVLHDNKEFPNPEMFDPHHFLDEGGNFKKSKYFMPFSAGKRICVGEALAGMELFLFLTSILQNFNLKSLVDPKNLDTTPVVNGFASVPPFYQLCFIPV

For the molecule `CC1(CO)C(O[C@@H]2O[C@H](C(=O)O)[C@@H](O)[C@H](O)[C@H]2O)CC[C@@]2(C)C1CC[C@]1(C)C2CC=C2[C@H]3CC(C)(C)[C@H](O)[C@@H](O)[C@]3(CO)[C@H](O)C[C@]21C` (stereo partly shown) [DGA, deacylgymnemic acid], the “effect on CYP2C8 activity (in words)” value on human CYP2C8 is recorded as “unaffected”.

`Clc1ccc(COC(Cn2ccnc2)c2ccc(Cl)cc2Cl)c(Cl)c1` (stereo not shown) [MCZN, miconazole]: the IC50 – broadly, the midpoint of a concentration-inhibition curve – at 8 min came to 0.56 µg/mL (≈ 1.35 µM) on CYP2D6, 0.89 µg/mL (≈ 2.14 µM) against CYP1A2 and 0.19 µg/mL (≈ 0.457 µM) against CYP2C9.
